According to PubChem BioAssay (NCI):
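Values below derive from 48-hour exposures of cells grown in 96-well plates, with endpoints linearly interpolated between the two concentrations bracketing the appropriate inhibition level. TGI denotes the concentration required for complete inhibition of growth.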

Assays:
Experiment in all cases: NCI tumour cell line growth inhibition, 48 h
PC-3 prostate = tested on: PC-3 prostate
HOP-62 NSCLC = tested on: HOP-62 NSCLC
SK-MEL-2 melanoma = tested on: SK-MEL-2 melanoma
CCRF-CEM leukemia = tested on: CCRF-CEM leukemia
MDA-N = tested on: MDA-N
MCF7 breast = tested on: MCF7 breast
BT-549 breast = tested on: BT-549 breast
KM12 colon = tested on: KM12 colon
OVCAR-3 ovarian = tested on: OVCAR-3 ovarian
HCC-2998 colon = tested on: HCC-2998 colon
LOX IMVI melanoma = tested on: LOX IMVI melanoma
786-0 renal = tested on: 786-0 renal
A549 NSCLC = tested on: A549 NSCLC
MOLT-4 leukemia = tested on: MOLT-4 leukemia
HCT-116 colon = tested on: HCT-116 colon
RPMI-8226 leukemia = tested on: RPMI-8226 leukemia
HT29 colon = tested on: HT29 colon

SMILES | TGI (PC-3 prostate) [µM] | TGI (HOP-62 NSCLC) [µM] | TGI (SK-MEL-2 melanoma) [µM] | TGI (CCRF-CEM leukemia) [µM] | TGI (MDA-N) [µM] | TGI (MCF7 breast) [µM] | TGI (BT-549 breast) [µM] | TGI (KM12 colon) [µM] | TGI (OVCAR-3 ovarian) [µM] | TGI (HCC-2998 colon) [µM] | TGI (LOX IMVI melanoma) [µM] | TGI (786-0 renal) [µM] | TGI (A549 NSCLC) [µM] | TGI (MOLT-4 leukemia) [µM] | TGI (HCT-116 colon) [µM] | TGI (RPMI-8226 leukemia) [µM] | TGI (HT29 colon) [µM]
COc1ccc([C@H]2C=C(c3cc(F)c(Cl)cc3Cl)NC(=S)N2)cc1 | 65.7 | > 100 | 58.4 | > 100 | 33.2 | > 100 | > 100 | > 100 | > 100 | 70.5 | > 100 | > 100 | > 100 | > 100 | 84.9 | 76 | 80.5
N#Cc1c(C#N)c(-c2ccco2)n(-c2ccccc2)c1N | > 100 | > 100 | > 100 | > 100 | > 100 | > 100 | > 100 | > 100 | > 100 | > 100 | > 100 | > 100 | > 100 | > 100 | > 100 | > 100 | > 100
COc1ccc2oc(=O)c3c(c2c1C)OC(C)(C)C=C3 | > 100 | > 100 | > 100 | > 100 | > 100 | > 100 | > 100 | > 100 | > 100 | > 100 | > 100 | > 100 | > 100 | > 100 | > 100 | > 100 | > 100
Nc1ccc(Nc2c3ccccc3nc3ccccc23)cc1 | > 10 | > 10 | > 10 | 6.19 | > 10 | > 10 | > 10 | > 10 | > 10 | > 10 | 2.35 | > 10 | > 10 | > 10 | 9.52 | > 10 | > 10
CC[C@H](C)C1=C(O)[N@+]2([O-])Oc3ccc(-c4c(O)c(O)c(-c5ccc(OC(C)=O)cc5)c(OC(C)=O)c4OC(C)=O)cc3O[C@]2([C@@H](C)CC)C(=O)N1O | > 50 | > 50 | > 50 | 23.8 | > 50 | > 50 | > 50 | > 50 | > 50 | 24.5 | > 50 | > 50 | > 50 | 35 | 17.8 | 42 | > 50
CCN1C(=O)c2ccccc2C1(O)c1ccc(Cl)cc1 (configuration not stated) | 80.6 | > 100 | 83.6 | > 100 | > 100 | > 100 | > 100 | > 100 | > 100 | > 100 | > 100 | > 100 | > 100 | > 100 | > 100 | > 100 | > 100
